Reference: PubChem BioAssay (NCI)
Several values for one entry are separate records, joined by “and”; a condition that tells them apart may be missing. Equal values may be shown once.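 Briefly, cells in 96-well plates were exposed to five compound concentrations for 48 h, and endpoints were estimated by linear interpolation. GI50 is the concentration that inhibits growth by half. TGI denotes the concentration required for complete inhibition of growth.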

Assays:
Assay in all cases: growth of human tumour cells (NCI), 48 h
[1] = tested on: HS 578T breast
[2] = tested on: HOP-62 NSCLC
[3] = tested on: SK-MEL-2 melanoma
[4] = tested on: IGROV1 ovarian
[5] = tested on: OVCAR-8 ovarian
[6] = tested on: LOX IMVI melanoma
[7] = tested on: RXF 393 renal
[8] = tested on: NCI/ADR-RES ovarian
[9] = tested on: SF-539 CNS
[10] = tested on: UACC-62 melanoma
[11] = tested on: HL-60(TB) leukemia
[12] = tested on: CCRF-CEM leukemia
[13] = tested on: UO-31 renal
[14] = tested on: MOLT-4 leukemia
[15] = tested on: SN12C renal

## O=C1C=C(O)c2c(O)ccc(O)c2C1=O
[1]
  TGI: > 100 µM
[2]
  TGI: > 100 µM
[3]
  TGI: > 100 µM
[4]
  TGI: > 100 µM
[5]
  TGI: > 100 µM
[6]
  TGI: > 100 µM
[7]
  TGI: > 100 µM
[8]
  TGI: > 100 µM
[9]
  TGI: > 100 µM
[10]
  TGI: > 100 µM
[11]
  TGI: > 100 µM
[12]
  TGI: > 100 µM
[13]
  TGI: > 100 µM
[14]
  TGI: > 100 µM

## NC1=Nc2ccccc2Sc2nc3ccccc3n21
[1]
  TGI: > 100 µM
[2]
  TGI: > 100 µM
[4]
  TGI: > 100 µM
[6]
  TGI: > 100 µM
[7]
  TGI: > 100 µM
[8]
  TGI: > 100 µM
[9]
  TGI: > 100 µM
[10]
  TGI: > 100 µM
[11]
  TGI: 6.49 µM
[15]
  TGI: > 100 µM
[12]
  TGI: > 100 µM
[13]
  TGI: 40.9 µM
[14]
  TGI: > 100 µM

## Cc1cn([C@@H]2C[C@H](CO)[C@@H]2O)c(=O)[nH]c1=O
[1]
  TGI: > 100 µM
[2]
  TGI: > 100 µM
[3]
  TGI: > 100 µM
[4]
  TGI: > 100 µM
[5]
  TGI: > 100 µM
[6]
  TGI: > 100 µM
[7]
  TGI: > 100 µM
[8]
  TGI: > 100 µM
[9]
  TGI: > 100 µM
[11]
  TGI: > 100 µM
[15]
  TGI: > 100 µM
[12]
  TGI: > 100 µM
[13]
  TGI: > 100 µM
[14]
  TGI: > 100 µM

## CCN(CC)c1ccc2cc(C(N)=O)c(=Nc3ccc(F)cc3)oc2c1
[1]
  TGI: > 100 µM
[2]
  TGI: > 100 µM
[3]
  TGI: > 100 µM
[4]
  TGI: > 100 µM
[5]
  TGI: > 100 µM
[6]
  TGI: > 100 µM
[7]
  TGI: 92 µM
[8]
  TGI: > 100 µM
[10]
  TGI: > 100 µM
[11]
  TGI: > 100 µM
[15]
  TGI: > 100 µM
[12]
  TGI: > 100 µM
[13]
  TGI: > 100 µM
[14]
  TGI: > 100 µM

## O=c1[nH]nc(Cc2ccc(Cl)cc2)n1/N=C/c1c[nH]c2ccccc12
[1]
  TGI: > 100 µM
[2]
  TGI: > 100 µM
[3]
  TGI: > 100 µM
[4]
  TGI: > 100 µM
[5]
  TGI: > 100 µM
[6]
  TGI: > 100 µM
[8]
  TGI: > 100 µM
[9]
  TGI: > 100 µM
[10]
  TGI: > 100 µM
[11]
  TGI: > 100 µM
[15]
  TGI: > 100 µM
[12]
  TGI: > 100 µM
[13]
  TGI: > 100 µM
[14]
  TGI: > 100 µM

## CC1(C)CN=CC(C)(OCc2ccccc2)C(=O)NC(C)(C)CN=CC(C)(OCc2ccccc2)C(=O)N1 (stereo not given)
[1]
  TGI: > 10 µM
[2]
  TGI: > 10 µM
[3]
  TGI: > 10 µM
[4]
  TGI: > 10 µM
[5]
  TGI: > 10 µM
[6]
  TGI: > 10 µM
[7]
  TGI: > 10 µM
[9]
  TGI: > 10 µM
[10]
  TGI: > 10 µM
[11]
  TGI: > 10 µM
[15]
  TGI: > 10 µM
[12]
  TGI: > 10 µM
[13]
  TGI: > 10 µM
[14]
  TGI: > 10 µM

## Cn1c(COC(=O)NC2CCCCC2)c(COC(=O)NC2CCCCC2)c2ccc3cc(C=O)ccc3c21
[1]
  TGI: > 100 µM
[3]
  TGI: > 100 µM
[4]
  TGI: > 100 µM
[5]
  TGI: > 100 µM
[6]
  TGI: > 100 µM
[7]
  TGI: > 100 µM
[8]
  TGI: > 100 µM
[9]
  TGI: > 100 µM
[10]
  TGI: > 100 µM
[11]
  TGI: > 100 µM
[15]
  TGI: > 100 µM
[12]
  TGI: > 100 µM
[13]
  TGI: > 100 µM
[14]
  TGI: > 100 µM

## COc1cc(C2c3cc(OC)c(OC)c(O)c3C(=O)C3CCC(=O)N32)cc(OC)c1OC (stereo not given)
[1]
  TGI: > 100 µM
[2]
  TGI: > 100 µM
[3]
  TGI: > 100 µM
[4]
  TGI: > 100 µM
[5]
  TGI: 71.4 µM
[6]
  TGI: > 100 µM
[8]
  TGI: > 100 µM
[9]
  TGI: > 100 µM
[10]
  TGI: > 100 µM
[11]
  TGI: > 100 µM
[15]
  TGI: > 100 µM
[14]
  TGI: > 100 µM

## Cc1ccc2c(=O)cc(Cc3csc4ccccc34)[nH]c2n1
[1]
  TGI: 46.9 µM
[2]
  TGI: > 100 µM
[3]
  TGI: > 100 µM
[4]
  TGI: 30.9 µM
[5]
  TGI: > 100 µM
[6]
  TGI: 40.6 µM
[7]
  TGI: > 100 µM
[8]
  TGI: 52.4 µM
[10]
  TGI: > 100 µM
[15]
  TGI: > 100 µM
[12]
  TGI: > 100 µM
[13]
  TGI: 80.1 µM
[14]
  TGI: > 100 µM

## O=C(c1ccccc1)c1c(C(F)(F)F)n([O-])c2cc(F)c(F)cc2[n+]1=O
[1]
  TGI: 2.48 µM
[2]
  TGI: 2.26 µM
[3]
  TGI: 4.44 µM
[4]
  TGI: 6.79 µM
[5]
  TGI: 1.15 µM
[7]
  TGI: 2.22 µM
[8]
  TGI: 1.63 µM
[9]
  TGI: 1.67 µM
[10]
  TGI: 5.08 µM
[11]
  TGI: 1.55 µM
[12]
  GI50: 8.72 µM
  TGI: > 100 µM
[13]
  TGI: 2.4 µM
[14]
  TGI: 1.97 µM

## CN(/N=C/c1ccc(Cl)cc1)C1=NCCCCN1
[1]
  TGI: > 100 µM
[2]
  TGI: > 100 µM
[4]
  TGI: > 100 µM
[5]
  TGI: > 100 µM
[6]
  TGI: > 100 µM
[8]
  TGI: > 100 µM
[9]
  TGI: > 100 µM
[10]
  TGI: > 100 µM
[11]
  TGI: > 100 µM
[15]
  TGI: > 100 µM
[12]
  TGI: > 100 µM
[13]
  TGI: > 100 µM
[14]
  TGI: > 100 µM

## Cc1c2oc3c(C)cc(F)c(C(=O)NC4C(=O)NC(C(C)C)C(=O)N5CCCC5C(=O)N(C)CC(=O)N(C)C(C(C)C)C(=O)OC4C)c3nc-2c(C(=O)NC2C(=O)NC(C(C)C)C(=O)N3CCCC3C(=O)N(C)CC(=O)N(C)C(C(C)C)C(=O)OC2C)c(N)c1=O (stereo not given)
[1]
  GI50: 0.5 µM
  TGI: > 100 µM
[3]
  TGI: 0.663 µM
[4]
  TGI: > 100 µM
[5]
  GI50: 0.142 µM
[6]
  TGI: 0.159 µM
[7]
  TGI: 0.391 µM
[8]
  GI50: 5.62 µM
  TGI: 91 µM
[9]
  TGI: 1.41 µM and 0.727 µM
[10]
  TGI: 0.492 µM and 0.154 µM
[11]
  TGI: 0.161 µM
[15]
  TGI: > 100 µM
[12]
  TGI: 0.0385 µM and 0.309 µM
[13]
  GI50: 0.458 µM
  TGI: 4.65 µM
[14]
  TGI: 0.00545 µM

## CCC(=O)N1C(=O)C(CC)(CC)C(=O)N1C(=O)CC
[1]
  TGI: > 100 µM
[2]
  TGI: > 100 µM
[3]
  TGI: > 100 µM
[4]
  TGI: > 100 µM
[5]
  TGI: > 100 µM
[7]
  TGI: > 100 µM
[8]
  TGI: > 100 µM
[10]
  TGI: > 100 µM
[11]
  TGI: > 100 µM
[15]
  TGI: > 100 µM
[12]
  TGI: > 100 µM
[13]
  TGI: > 100 µM
[14]
  TGI: > 100 µM

## S=C(N/N=C(\C(=N/NC(=S)N1CCCCC1)c1ccccn1)c1ccccn1)N1CCCCC1
[1]
  TGI: > 100 µM
[2]
  TGI: > 100 µM
[4]
  TGI: > 100 µM
[5]
  TGI: > 100 µM
[6]
  TGI: > 100 µM
[7]
  TGI: 73.4 µM
[8]
  TGI: > 100 µM
[9]
  TGI: > 100 µM
[10]
  TGI: > 100 µM
[11]
  TGI: 19.8 µM
[12]
  TGI: 57.4 µM
[13]
  TGI: > 100 µM
[14]
  TGI: > 100 µM

## O=C(CSCC(=O)N/N=C\c1ccccc1F)N/N=C\c1ccccc1F
[1]
  TGI: > 100 µM
[3]
  TGI: > 100 µM
[4]
  TGI: > 100 µM
[5]
  TGI: > 100 µM
[6]
  TGI: > 100 µM
[7]
  TGI: > 100 µM
[8]
  TGI: 63.1 µM
[9]
  TGI: > 100 µM
[10]
  TGI: > 100 µM
[11]
  TGI: > 100 µM
[15]
  TGI: > 100 µM
[12]
  TGI: > 100 µM
[13]
  TGI: > 100 µM
[14]
  TGI: > 100 µM

## CC(C)(C)OC(=O)n1c(Cl)c(C=O)c2ccccc21
[1]
  TGI: > 100 µM
[2]
  TGI: 43 µM
[3]
  TGI: 96.4 µM
[4]
  TGI: > 100 µM
[5]
  TGI: > 100 µM
[6]
  TGI: 68.1 µM
[8]
  TGI: 58 µM
[9]
  TGI: 89.1 µM
[10]
  TGI: 43.3 µM
[11]
  TGI: > 100 µM
[15]
  TGI: 54.3 µM
[12]
  TGI: 79.4 µM
[13]
  TGI: 41.3 µM
[14]
  TGI: > 100 µM
